Tests used:
[1] = Unidirectional release of drug from compressed patches in diffusion cell (PBS); format: physicochemical
Method: (2) Unidirectional Release of Drug from Compressed Patches: Release of a model drug (Sulforhodamine B) from patches was measured in vitro into phosphate buffered saline (PBS, pH 7.4, 0.01 M). To distinguish drug release from the mucoadhesive side and the backing side of the patch, the patches were placed in a custom-designed diffusion cell. The cell comprised two chambers placed side-by-side with an opening provided between the chambers of about 3.14 mm^2. A patch (4 mm in diameter) was placed between the two chambers and each chamber was filled with 6 ml PBS. Vacuum grease was used to seal the joint to avoid leakage of PBS. Amount of sulforhodamine B released from either side of the patch into the solution was quantified at 565 nm using a spectrophotometer (UV-1601, Shimadzu Corporation).
To assess whether unidirectionality of release is also observed when the patch is placed on the intestine, the following experiments were performed. A section of pig intestine was placed on a diffusion cell such that the mucosal side faced the upper (donor) chamber. The donor chamber was filled with 2 ml PBS. Under these conditions, the thickness of the PBS layer on the intestine was about […]. A sulforhodamine-containing patch (4 mm in diameter) was prepared using methods described above was gently placed on the intestine. A stirring bar was placed on a mesh, which was placed about 1 cm above the patch. The receiver chamber was filled with 12 ml PBS. A stirring bar was placed in the receiver chamber. The cell was placed on a magnetic stirrer and stirred at 400 rpm for 120 minutes. Amount of sulforhodamine B released into donor and receiver chambers was measured using the same spectrophotometer described above. Percentages of sulforhodamine B delivered into the receiver and donor chambers were calculated (Figure 12). By measuring the total amount of sulforhodamine B released from the patch, the percent of sulforhodamine B delivered into the intestine was also calculated.

[2] = Leakage of drug from patch edges; format: physicochemical; details: within 10 minutes
Description: In a regular patch without the microspheres structure, when the patch is cut into smaller pieces, drug in the reservoir layer easily leaks from along the breaking edges. In the presence of the microspheres structure, the breakpoint usually occurs between mircrospheres, which make it difficult for the drug to penetrate through the backing layer. So, with the help of microspheres structure, the leakage of drug from the patch can be substantially controlled. Though drug could leak from those microspheres along the edge, where their coating would possibly be broken, for microspheres located away from the edge no leakage can be seen. In a quantitative measurement, within 10 minutes, 60% of sulforhodamine B was lost from the edges in patch.without microspheres structure, while only 10% leaked in the presence of this microspheres structure.

[3] = format: in vitro ADME, rat
Method: The experiment was performed in an in vitro perfusion device.
Patches (2 mm×2 mm) were put into intestine lumen (3 cm in length). One end of the lumen was connected to an infusion inlet, while the other end was connected to a receiving tube. Phosphate buffer solution (PBS) was infused in a constant rate (0.05 ml/min) into the lumen. The entire device was placed on a magnetic stirrer panel, and samples were taken from PBS outside the lumen at predetermined time interval. […] This perfusion system mimics in-vivo intestine fluid movement.
Bioavailability of drug transport from these patches was calculated. Bioavailability refers to the ratio of the amount of drug transported across the intestine to the total amount of drug released at the site of absorption.

non-diabetic rats = experiment: Intestinal delivery of insulin patches in non-diabetic rats (blood glucose); format: in vivo, Sprague Dawley (SD) rats; details: 10 IU/kg in the intestine
Method: Intestinal delivery of insulin patches in non-diabetic rats: All animal experiments were4conducted under aseptic conditions using institutionally approved protocols. Male Sprague Dawley (SD) rats, weighing 350-450 g fasted for 16 hours were anesthetized using gas anesthesia (1.25-4% isofluorane in oxygen). Rat intestine was exposed through a midline abdominal incision (2.0 cm). A small longitudinal incision (5 mm) was made about 5 cm from the proximal end of the small intestine. Patches (3-6 pieces, 2 mm in diameter) containing insulin (0.4-1.2 IU/patch, totally 5 IU/kg or 10 Iu/kg per rat) were randomly inserted through the opening into the lumen. The incisions were then sealed by surgical tissue (NEXABAND®, Veterinary Products Laboratories, Phoenix, Ariz.). […] Blood glucose level was measured using a glucometer (Excite® XL, Bayer Corporation, Elkhart, Ind.). […] The areas above the glucose curve (AAC) were calculated by the trapezoidal method (Carino G P, Jacob J S, Mathiowitz E. 2000. Nanosphere based oral insulin delivery. J Controlled Release 65:261-269). The apparent relative pharmacological bioavailability of insulin from non-diabetic rats was calculated by comparing the AAC following intestinal administration under different doses with that following subcutaneous administration.

difference in release profile when different compression pressures were used during patch preparation [1]	drug released from the backing side of the patch ([1]; 120 minutes, PBS pH 7.4)	drug released from the mucoadhesive side of the patch ([1]; 120 minutes, PBS pH 7.4)	share of released drug that was released from the mucoadhesive side ([1]; compressed patch)	sulforhodamine B leaked from the edges ([2]; patch in the presence of microspheres structure) [%]	sulforhodamine B lost from the edges ([2]; patch without microspheres structure) [%]	fraction transported across rat intestine from patches compared to solution form [3]	Compound	hypoglycemia after administration in the intestine (non-diabetic rats)
no significant difference	less than 0.3%	about 10%	more than 97%	10	60	higher fraction	CCN(CC)c1ccc2c(-c3ccc(S(=O)(=O)O)cc3S(=O)(=O)[O-])c3ccc(=[N+](CC)CC)cc-3oc2c1 [sulforhodamine B]	–
–	–	–	–	–	–	–	insulin solution: bovine insulin solution (pH 7), negative control administered in the intestine at 10 IU/kg	did not produce detectable hypoglycemia

Reference: US20030017195A1, “Method for oral drug delivery” (priority 2001, published 2003)
